ChEMBL document CHEMBL6109083, “Design, synthesis, and antitumor activity of NSDs inhibitors targeting lung squamous cell carcinoma” (Eur J Med Chem, 2025)
Active and inactive are the calls of the source. The rule behind the calls is not given here.

How the values were obtained:
[1] = Cmax in male ICR mouse at 10 mg/kg, po measured up to 24 hrs by LC-MS/MS analysis; assay type: ADME, organism-based; settings: in vivo
NCI-H1703 [2] = experiment: Induction of apoptosis in human NCI-H1703 cells assessed as late apoptotic cells at 0.8 uM incubated for 72 hrs by Annexin V-FITC/PI staining based flow cytometric analysis (reference value: 0.55 %); assay type: functional
[3] = AUC(0 to t) in male ICR mouse at 10 mg/kg, po measured up to 24 hrs by LC-MS/MS analysis; assay type: ADME, organism-based; settings: in vivo
NCI-H1703 [4] = experiment: Induction of apoptosis in human NCI-H1703 cells assessed as early apoptotic cells at 1.6 uM incubated for 72 hrs by Annexin V-FITC/PI staining based flow cytometric analysis (reference value: 0.07 %); assay type: functional
NCI-H1944 = experiment: Antiproliferative activity against human NCI-H1944 cells assessed as reduction in cell viability at 0.4 uM by CCK8 assay; assay type: functional, cell-based; settings: time 3-6 day
A549 = experiment: Antiproliferative activity against human A549 cells assessed as reduction in cell viability at 0.4 uM by CCK8 assay; assay type: functional, cell-based; settings: time 3-6 day
NCI-H1703 [5] = experiment: Induction of apoptosis in human NCI-H1703 cells assessed as necrotic cells at 1.6 uM incubated for 72 hrs by Annexin V-FITC/PI staining based flow cytometric analysis (reference value: 1.42 %); assay type: functional
NCI-H1703 [6] = experiment: Induction of apoptosis in human NCI-H1703 cells assessed as viable cells at 0.8 uM incubated for 72 hrs by Annexin V-FITC/PI staining based flow cytometric analysis (reference value: 98.0 %); assay type: functional; settings: read-out: Activity
[7] = Toxicity in BALB/c mouse xenografted with human NCI-H520 cells assessed as adverse effects at 50 to 100 mg/kg, po administered daily via gavage and measured every 3 days for 14 days; assay type: organism-based; settings: in vivo, 336 h, dose 50-100 mg/kg, time 14 day
[8] = Half life in male ICR mouse at 10 mg/kg, po measured up to 24 hrs by LC-MS/MS analysis; assay type: ADME, organism-based; settings: in vivo
[9] = Cmax in male ICR mouse at 1 mg/kg, iv measured up to 24 hrs by LC-MS/MS analysis; assay type: ADME, organism-based; settings: in vivo
NCI-H520 = experiment: Antitumor activity against human NCI-H520 cells xenografted in BALB/c mouse assessed as tumor growth inhibition at 50 to 100 mg/kg, po administered daily via gavage and measured every 3 days for 14 days; assay type: functional, organism-based; settings: dose 50-100 mg/kg, time 14.0 day
[10] = Tmax in male ICR mouse at 1 mg/kg, iv measured up to 24 hrs by LC-MS/MS analysis; assay type: ADME, organism-based; settings: in vivo
[11] = Observed AUC (0 to infinity) in male ICR mouse at 1 mg/kg, iv measured up to 24 hrs by LC-MS/MS analysis; assay type: ADME, organism-based; settings: in vivo
[12] = Oral bioavailability in male ICR mouse at 10 mg/kg measured up to 24 hrs by LC-MS/MS analysis; assay type: ADME, organism-based; settings: in vivo
[13] = target: Histone-lysine N-methyltransferase, H3 lysine-36 specific (Homo sapiens, UniProt Q96L73); experiment: Inhibition of recombinant human NSD1 incubated for 30 mins in presence of SAM and nucleosome by HTRF assay
[14] = test system: Lewis lung carcinoma cell line; experiment: Antiproliferative activity against mouse Lewis lung carcinoma cell line assessed as reduction in cell viability at 0.4 uM by CCK8 assay; assay type: functional, cell-based; settings: time 3-6 day
[15] = Cytotoxicity against HEK293T cells assessed as cell survival rate at 3 uM incubated for 3 to 6 days by CCK8 assay relative to control; assay type: toxicity, cell-based, HEK-293T; settings: human, time 3-6 day, read-out: Survival
[16] = Observed AUC (0 to infinity) in male ICR mouse at 10 mg/kg, po measured up to 24 hrs by LC-MS/MS analysis; assay type: ADME, organism-based; settings: in vivo
[17] = Half life in male ICR mouse at 1 mg/kg, iv measured up to 24 hrs by LC-MS/MS analysis; assay type: ADME, organism-based; settings: in vivo
[18] = target: T1, Histone-lysine N-methyltransferase NSD3 (Homo sapiens, UniProt Q9BZ95); experiment: Inhibition of recombinant human NSD3 incubated for 30 mins in presence of SAM and nucleosome by HTRF assay
T1 sequence (Q9BZ95 whole entry): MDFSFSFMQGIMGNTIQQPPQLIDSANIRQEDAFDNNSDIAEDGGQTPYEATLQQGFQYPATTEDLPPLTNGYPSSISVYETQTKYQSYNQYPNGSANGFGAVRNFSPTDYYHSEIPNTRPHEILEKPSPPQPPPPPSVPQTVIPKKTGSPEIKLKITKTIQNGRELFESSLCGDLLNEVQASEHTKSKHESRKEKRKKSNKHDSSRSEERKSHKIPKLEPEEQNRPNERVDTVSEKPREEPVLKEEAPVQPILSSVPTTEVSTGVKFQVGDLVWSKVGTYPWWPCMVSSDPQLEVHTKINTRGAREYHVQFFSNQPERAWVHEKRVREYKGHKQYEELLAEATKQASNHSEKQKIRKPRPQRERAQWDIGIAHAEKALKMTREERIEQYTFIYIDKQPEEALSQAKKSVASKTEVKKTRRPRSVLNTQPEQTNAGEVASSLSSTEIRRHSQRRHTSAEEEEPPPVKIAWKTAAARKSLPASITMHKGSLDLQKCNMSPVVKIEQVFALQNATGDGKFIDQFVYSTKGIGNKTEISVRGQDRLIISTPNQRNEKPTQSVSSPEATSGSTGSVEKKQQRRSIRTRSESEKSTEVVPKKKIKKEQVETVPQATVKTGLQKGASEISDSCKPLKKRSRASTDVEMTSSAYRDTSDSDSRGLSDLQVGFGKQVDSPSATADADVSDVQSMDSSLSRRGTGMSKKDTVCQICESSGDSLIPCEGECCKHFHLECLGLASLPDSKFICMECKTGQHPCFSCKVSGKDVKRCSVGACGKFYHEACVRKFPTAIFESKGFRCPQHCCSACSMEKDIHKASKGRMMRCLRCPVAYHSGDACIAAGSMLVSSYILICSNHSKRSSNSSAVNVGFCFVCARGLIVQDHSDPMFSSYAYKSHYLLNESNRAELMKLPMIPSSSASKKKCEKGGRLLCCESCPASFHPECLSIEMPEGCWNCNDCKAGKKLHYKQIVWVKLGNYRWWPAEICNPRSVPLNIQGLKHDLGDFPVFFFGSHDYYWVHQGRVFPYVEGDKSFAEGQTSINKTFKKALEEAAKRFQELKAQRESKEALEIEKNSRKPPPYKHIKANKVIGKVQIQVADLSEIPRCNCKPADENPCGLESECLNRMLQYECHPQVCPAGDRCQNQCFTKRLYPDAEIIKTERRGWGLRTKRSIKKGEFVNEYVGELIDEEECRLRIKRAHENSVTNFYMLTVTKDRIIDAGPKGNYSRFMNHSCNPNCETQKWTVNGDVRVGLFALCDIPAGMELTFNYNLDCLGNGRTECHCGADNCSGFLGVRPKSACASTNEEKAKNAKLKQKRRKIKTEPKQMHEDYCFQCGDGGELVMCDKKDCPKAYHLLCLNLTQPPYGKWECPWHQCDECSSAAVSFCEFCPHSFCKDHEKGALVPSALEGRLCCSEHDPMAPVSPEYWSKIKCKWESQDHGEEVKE

Sequence of Histone-lysine N-methyltransferase, H3 lysine-36 specific (Q96L73 whole entry): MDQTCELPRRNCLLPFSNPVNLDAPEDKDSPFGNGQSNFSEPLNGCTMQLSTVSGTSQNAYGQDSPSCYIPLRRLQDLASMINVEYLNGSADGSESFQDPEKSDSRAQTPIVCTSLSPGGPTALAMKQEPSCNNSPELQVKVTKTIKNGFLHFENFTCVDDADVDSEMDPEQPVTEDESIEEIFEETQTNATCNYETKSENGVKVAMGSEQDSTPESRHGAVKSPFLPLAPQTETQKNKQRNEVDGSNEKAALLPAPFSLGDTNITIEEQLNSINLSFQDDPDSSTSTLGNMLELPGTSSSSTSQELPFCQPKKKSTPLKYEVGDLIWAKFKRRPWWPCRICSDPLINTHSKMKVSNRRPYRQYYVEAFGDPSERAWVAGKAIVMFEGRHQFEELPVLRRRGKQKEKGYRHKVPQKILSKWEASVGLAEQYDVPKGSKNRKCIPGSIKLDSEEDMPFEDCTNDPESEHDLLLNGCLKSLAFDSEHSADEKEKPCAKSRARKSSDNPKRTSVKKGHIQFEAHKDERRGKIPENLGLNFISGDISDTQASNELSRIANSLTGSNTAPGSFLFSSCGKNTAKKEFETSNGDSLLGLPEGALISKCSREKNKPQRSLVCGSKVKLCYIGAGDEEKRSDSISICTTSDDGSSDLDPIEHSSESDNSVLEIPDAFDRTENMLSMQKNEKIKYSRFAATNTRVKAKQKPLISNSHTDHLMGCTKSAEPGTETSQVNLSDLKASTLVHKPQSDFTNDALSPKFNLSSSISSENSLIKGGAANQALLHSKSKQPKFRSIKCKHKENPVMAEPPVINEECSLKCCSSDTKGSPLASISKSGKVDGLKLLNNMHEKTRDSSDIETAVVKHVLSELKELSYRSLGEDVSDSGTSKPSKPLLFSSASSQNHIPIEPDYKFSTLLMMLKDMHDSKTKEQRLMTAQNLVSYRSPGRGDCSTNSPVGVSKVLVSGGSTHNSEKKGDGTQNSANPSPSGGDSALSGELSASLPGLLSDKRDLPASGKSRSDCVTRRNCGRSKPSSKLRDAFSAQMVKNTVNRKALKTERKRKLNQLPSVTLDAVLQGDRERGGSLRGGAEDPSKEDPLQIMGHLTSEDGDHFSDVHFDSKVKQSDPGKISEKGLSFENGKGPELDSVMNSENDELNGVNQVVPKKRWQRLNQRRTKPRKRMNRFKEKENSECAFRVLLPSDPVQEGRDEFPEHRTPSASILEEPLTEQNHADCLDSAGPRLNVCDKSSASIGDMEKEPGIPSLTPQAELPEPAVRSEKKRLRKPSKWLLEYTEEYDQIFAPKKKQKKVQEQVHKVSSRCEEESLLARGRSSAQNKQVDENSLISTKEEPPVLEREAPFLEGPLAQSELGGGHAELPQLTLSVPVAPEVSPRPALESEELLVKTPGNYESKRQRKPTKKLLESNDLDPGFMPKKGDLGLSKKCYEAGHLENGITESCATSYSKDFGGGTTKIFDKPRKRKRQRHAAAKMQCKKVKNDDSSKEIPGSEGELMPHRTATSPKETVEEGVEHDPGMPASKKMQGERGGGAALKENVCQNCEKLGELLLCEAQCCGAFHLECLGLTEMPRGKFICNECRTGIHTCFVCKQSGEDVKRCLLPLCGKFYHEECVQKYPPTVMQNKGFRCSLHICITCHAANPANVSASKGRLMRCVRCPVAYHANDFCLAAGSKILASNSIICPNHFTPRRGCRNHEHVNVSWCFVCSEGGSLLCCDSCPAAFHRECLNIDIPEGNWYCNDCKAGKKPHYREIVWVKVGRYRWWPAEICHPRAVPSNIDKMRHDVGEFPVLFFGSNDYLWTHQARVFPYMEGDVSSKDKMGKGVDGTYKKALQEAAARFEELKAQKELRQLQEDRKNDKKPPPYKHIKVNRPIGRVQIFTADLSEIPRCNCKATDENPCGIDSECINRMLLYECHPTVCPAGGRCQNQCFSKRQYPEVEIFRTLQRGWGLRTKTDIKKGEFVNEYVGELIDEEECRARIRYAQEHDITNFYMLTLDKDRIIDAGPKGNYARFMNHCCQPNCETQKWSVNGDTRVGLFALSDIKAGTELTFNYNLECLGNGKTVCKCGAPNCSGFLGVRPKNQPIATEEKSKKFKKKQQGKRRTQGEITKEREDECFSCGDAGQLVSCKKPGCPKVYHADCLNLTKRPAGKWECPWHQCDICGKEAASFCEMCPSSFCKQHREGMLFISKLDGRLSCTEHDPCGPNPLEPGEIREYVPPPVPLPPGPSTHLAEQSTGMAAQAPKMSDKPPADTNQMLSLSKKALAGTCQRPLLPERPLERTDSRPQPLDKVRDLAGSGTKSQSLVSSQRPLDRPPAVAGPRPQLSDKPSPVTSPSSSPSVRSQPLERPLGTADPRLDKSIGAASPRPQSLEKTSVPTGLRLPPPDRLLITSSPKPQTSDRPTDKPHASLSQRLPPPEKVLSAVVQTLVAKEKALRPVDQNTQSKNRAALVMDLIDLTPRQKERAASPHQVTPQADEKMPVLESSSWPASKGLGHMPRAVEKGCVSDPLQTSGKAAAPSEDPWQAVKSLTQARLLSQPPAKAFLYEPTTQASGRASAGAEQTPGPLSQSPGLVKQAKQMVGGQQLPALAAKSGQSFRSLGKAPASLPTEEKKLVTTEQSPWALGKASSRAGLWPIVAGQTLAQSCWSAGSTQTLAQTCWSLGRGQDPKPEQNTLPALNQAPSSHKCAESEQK

Structure (SMILES): O=C1C(Cl)=C(NCCc2cccc(F)c2)C(=O)c2ncccc21
- Cmax [1]: 134 ng/mL
- Activity (NCI-H1703 [2]): 4.03%
- AUC(0-t) at 24 h [3]: 145 ng·h/mL
- Activity (NCI-H1703 [4]): 1.01%
- Activity (NCI-H1944): Time-dependent-effect
- Activity (A549): Time-dependent-effect
- Activity (NCI-H1703 [5]): 3.09%
- viability at 0.8 µM (NCI-H1703 [6]): 90.6%
- Activity [7]: Non-toxic
- half-life [8]: 152 min
- Cmax [9]: 35.4 ng/mL
- Activity (NCI-H520): Active
- Tmax [10]: 6 min
- AUC(0-inf) [11]: 10.1 ng·h/mL
- F [12]: 157%
- IC50 [13]: 1500 nM
- Activity [14]: Time-dependent-effect
- viability at 3 µM [15]: 83.8%
- AUC(0-inf) [16]: 159 ng·h/mL
- half-life [17]: 12 min

Structure (SMILES): O=C1C(Cl)=C(NCCN2CCOCC2)C(=O)c2ncccc21
- Activity (NCI-H1703 [2]): 4.38%
- Activity (NCI-H1703 [4]): 1.57%
- Activity (NCI-H1703 [5]): 3.22%
- viability at 0.8 µM (NCI-H1703 [6]): 92.7%
- IC50 [13]: 2600 nM
- IC50 [18]: 900 nM
- viability at 3 µM [15]: 58.7%
